How the values were obtained:
Test in all cases: two-electrode voltage clamp, Xenopus oocytes
Assay type in all cases: cell-based
Pun-GLC-3 = biological target: T1, Pun-GLC-3 (Parascaris univalens, UniProt A0A894K4V1)
T1 construct: full-length, expressed singly (cRNA) in Xenopus laevis oocytes; homomeric pentameric GluCl
T1 sequence (A0A894K4V1 25-485): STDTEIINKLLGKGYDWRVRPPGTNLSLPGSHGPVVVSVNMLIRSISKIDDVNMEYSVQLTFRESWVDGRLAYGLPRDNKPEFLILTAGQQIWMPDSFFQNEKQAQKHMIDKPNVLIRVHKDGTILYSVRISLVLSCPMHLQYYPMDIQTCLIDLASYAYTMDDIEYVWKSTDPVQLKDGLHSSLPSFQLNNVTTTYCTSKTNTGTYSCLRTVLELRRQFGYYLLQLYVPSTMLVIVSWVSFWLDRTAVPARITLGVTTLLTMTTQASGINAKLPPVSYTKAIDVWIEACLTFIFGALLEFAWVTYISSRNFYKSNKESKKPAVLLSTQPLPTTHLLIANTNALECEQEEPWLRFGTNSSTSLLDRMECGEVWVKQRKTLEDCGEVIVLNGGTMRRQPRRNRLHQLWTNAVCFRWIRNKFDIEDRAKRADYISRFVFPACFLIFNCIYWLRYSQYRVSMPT

Cel-AVR-14B/GLC-2 = biological target: T2, Cel-AVR-14B/GLC-2 (Caenorhabditis elegans, UniProt Q17328+Q17369)
T2 construct: full-length subunits co-expressed 1:1 (cRNA) in Xenopus laevis oocytes; heteromeric, pentameric GluCl, stoichiometry unknown; b70 prints CAA04170 for AVR-14B, which b73 gives to AVR-15B
T2 sequence (Q17369 22-430): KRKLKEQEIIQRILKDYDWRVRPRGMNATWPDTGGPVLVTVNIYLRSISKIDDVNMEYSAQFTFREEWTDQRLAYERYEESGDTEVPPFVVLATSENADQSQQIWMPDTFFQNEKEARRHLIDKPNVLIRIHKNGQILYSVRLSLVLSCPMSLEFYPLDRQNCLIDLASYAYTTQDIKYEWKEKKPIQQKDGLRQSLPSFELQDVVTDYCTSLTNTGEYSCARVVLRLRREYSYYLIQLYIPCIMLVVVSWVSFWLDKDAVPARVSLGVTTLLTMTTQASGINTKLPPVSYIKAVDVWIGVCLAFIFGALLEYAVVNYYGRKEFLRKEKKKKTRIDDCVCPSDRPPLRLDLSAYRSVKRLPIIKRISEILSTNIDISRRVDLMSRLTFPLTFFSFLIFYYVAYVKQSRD
T2 sequence (Q17328 23-434): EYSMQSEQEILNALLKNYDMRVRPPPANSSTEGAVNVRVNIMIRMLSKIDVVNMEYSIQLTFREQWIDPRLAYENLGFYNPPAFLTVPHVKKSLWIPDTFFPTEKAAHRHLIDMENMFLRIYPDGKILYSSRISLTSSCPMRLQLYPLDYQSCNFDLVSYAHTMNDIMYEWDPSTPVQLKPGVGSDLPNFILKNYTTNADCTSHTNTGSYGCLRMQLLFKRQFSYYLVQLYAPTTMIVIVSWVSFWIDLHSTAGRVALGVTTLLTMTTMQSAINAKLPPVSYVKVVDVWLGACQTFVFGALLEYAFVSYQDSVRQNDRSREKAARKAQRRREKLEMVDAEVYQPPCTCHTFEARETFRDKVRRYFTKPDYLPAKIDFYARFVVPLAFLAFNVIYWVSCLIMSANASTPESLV

Cel-GLC-2 = biological target: T3, Cel-GLC-2 (Caenorhabditis elegans, UniProt Q17328)
T3 construct: full-length, expressed singly (cRNA) in Xenopus laevis oocytes; homomeric pentameric GluCl
T3 sequence (Q17328 23-434): T2 sequence (Q17328 23-434)

Cel-AVR-14B = biological target: T4, Cel-AVR-14B (Caenorhabditis elegans, UniProt Q17369)
T4 construct: full-length, expressed singly (cRNA) in Xenopus laevis oocytes; homomeric pentameric GluCl; b70 prints CAA04170 for AVR-14B, which b73 gives to AVR-15B
T4 sequence (Q17369 22-430): T2 sequence (Q17369 22-430)

Pun-GLC-2/GLC-3 = biological target: T5, Pun-GLC-2/GLC-3 (Parascaris univalens, UniProt A0A894K4V1+A0A894KE58)
T5 construct: full-length subunits co-expressed 1:1 (cRNA) in Xenopus laevis oocytes; heteromeric, pentameric GluCl, stoichiometry unknown
T5 sequence (A0A894KE58 21-448): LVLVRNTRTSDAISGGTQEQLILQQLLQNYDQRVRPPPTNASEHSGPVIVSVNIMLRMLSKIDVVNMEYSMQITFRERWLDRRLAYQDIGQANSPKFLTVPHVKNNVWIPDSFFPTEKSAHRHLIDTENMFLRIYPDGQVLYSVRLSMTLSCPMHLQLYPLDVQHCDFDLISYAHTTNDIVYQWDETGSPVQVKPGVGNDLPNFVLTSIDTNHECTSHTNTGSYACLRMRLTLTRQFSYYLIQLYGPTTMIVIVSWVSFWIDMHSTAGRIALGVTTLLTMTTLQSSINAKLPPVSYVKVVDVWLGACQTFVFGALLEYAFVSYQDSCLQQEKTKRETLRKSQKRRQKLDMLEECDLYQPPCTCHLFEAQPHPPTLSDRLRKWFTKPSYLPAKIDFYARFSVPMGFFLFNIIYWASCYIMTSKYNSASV
T5 sequence (A0A894K4V1 25-485): T1 sequence (A0A894K4V1 25-485)

Pun-AVR-14B/GLC-2 = biological target: T6, Pun-AVR-14B/GLC-2 (Parascaris univalens, UniProt A0A894K7G1+A0A894KE58)
T6 construct: full-length subunits co-expressed 1:1 (cRNA) in Xenopus laevis oocytes; heteromeric, pentameric GluCl, stoichiometry unknown
T6 sequence (A0A894K7G1 19-428): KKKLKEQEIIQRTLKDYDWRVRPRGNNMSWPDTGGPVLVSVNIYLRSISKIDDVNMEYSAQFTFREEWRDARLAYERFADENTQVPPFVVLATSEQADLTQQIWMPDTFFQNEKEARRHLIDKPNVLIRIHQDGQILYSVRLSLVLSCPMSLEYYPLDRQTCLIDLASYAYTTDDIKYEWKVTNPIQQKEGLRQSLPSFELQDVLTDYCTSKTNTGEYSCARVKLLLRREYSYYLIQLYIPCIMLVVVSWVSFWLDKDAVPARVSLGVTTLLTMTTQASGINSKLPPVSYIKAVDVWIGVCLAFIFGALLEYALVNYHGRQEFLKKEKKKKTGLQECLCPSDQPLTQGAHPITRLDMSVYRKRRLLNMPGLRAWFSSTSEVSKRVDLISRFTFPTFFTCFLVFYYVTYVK
T6 sequence (A0A894KE58 21-448): T5 sequence (A0A894KE58 21-448)

Cel-GLC-2/GLC-3 = biological target: T7, Cel-GLC-2/GLC-3 (Caenorhabditis elegans, UniProt G5EEZ3+Q17328)
T7 construct: full-length subunits co-expressed 1:1 (cRNA) in Xenopus laevis oocytes; heteromeric, pentameric GluCl, stoichiometry unknown
T7 sequence (Q17328 23-434): T2 sequence (Q17328 23-434)
T7 sequence (G5EEZ3 23-484): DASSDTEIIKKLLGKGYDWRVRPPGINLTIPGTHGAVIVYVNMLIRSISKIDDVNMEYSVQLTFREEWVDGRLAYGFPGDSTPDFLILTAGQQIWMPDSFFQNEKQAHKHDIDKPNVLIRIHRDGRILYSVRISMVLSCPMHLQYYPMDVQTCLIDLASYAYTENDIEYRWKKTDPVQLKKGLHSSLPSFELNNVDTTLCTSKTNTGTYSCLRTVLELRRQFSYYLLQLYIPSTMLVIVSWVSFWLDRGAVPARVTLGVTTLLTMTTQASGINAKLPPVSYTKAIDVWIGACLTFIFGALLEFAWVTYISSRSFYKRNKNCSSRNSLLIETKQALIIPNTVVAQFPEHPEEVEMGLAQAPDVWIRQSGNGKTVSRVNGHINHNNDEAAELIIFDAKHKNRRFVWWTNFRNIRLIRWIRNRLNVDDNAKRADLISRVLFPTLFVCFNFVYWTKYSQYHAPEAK

For `N[C@@H](CCC(=O)O)C(=O)O` [glutamate], the EC50 (Pun-GLC-3) was 1480 ± 111 µM, the EC50 (Cel-AVR-14B/GLC-2) was 20.5 ± 1.3 µM and the EC50 (Cel-GLC-2) was 215 ± 13.1 µM. The EC50 (Cel-AVR-14B) was 112 ± 13 µM, the EC50 (Pun-GLC-2/GLC-3) was 120 ± 5.7 µM and the EC50 (Pun-AVR-14B/GLC-2) was 13.6 ± 1.6 µM. For the same compound, the EC50 (Cel-GLC-2/GLC-3) was 46.8 ± 3.7 µM.

Reference: paper doi:10.1101/2020.12.17.423223v1 (biorxiv, 2020)
